Assays:
[1] = Safety and tolerability of 4 consecutive 21 day TAR-200 dosing cycles; type: in vivo, human; conditions: four consecutive 3-week delivery periods; patients unfit for radical cystectomy
Procedure: (§1) Subjects receive the first TAR-200 transurethrally via the TARIS Inserter on Study Day 0. On Study Day 21 (±3 days), this first TAR-200 will be removed via flexible or rigid cystoscopy, and then the second TAR-200 will be placed. TAR-200 is an intravesicular device that contains 225 mg of gemcitabine. This removal/replacement procedure is repeated for a third and fourth dosing cycle in the induction period on Study Days 42 (±3 days), and 63 (±3 days), respectively. The fourth TAR-200 will be removed on Study Day 84 (±3 days), and the 3-month response assessment will be conducted.
The primary endpoint is assessment of safety and tolerability of 4 consecutive 21 day TAR-200 dosing cycles.
Twenty three patients were enrolled in the study as described in Example 1. The age range among the enrolled patients is from 50 to 98. The mean age is 82.6, and the median age is 84. The patients were treated and assessed according to the methods described therein. Patients that accomplished a complete response, partial response or stable disease after the induction phase received the maintenance phase treatment.

[2] = system: muscle-invasive urothelial cell carcinoma of the bladder; assay: Clinical response assessment after TAR-200 induction (cystoscopy, CT/MRI/PET, biopsy); type: in vivo, human
Procedure: as §1
During the maintenance period, a 21-day dosing cycle occurs every quarter (3 months) starting at approximately 6 months. Subjects may continue to undergo quarterly dosing cycles for 3 dosing cycles.
All subjects are assessed for clinical response every 3 months by cystoscopy, pelvic computed tomography (CT)/magnetic resonance imaging (MRI)/positron emission tomography (PET), and biopsy (at 12 weeks only, unless clinically indicated). Subjects are also assessed for symptom control at 3, 6, 9, and 12 weeks, and approximately every month during the maintenance period.
The secondary endpoints are proportion of subjects with clinical complete response (cCR), clinical partial response (cPR), stable disease (SD), and progression on the basis of visual lesions on cystoscopy, pelvic CT/MRI/PET, and biopsy. For purposes of this study, cCR means no evidence of the disease in the bladder or notes. cPR means in the previously N0 subject, a down staging in bladder tumor burden to <pT2 disease and no evidence of nodal disease burden or in the N1-N3 subject: a down staging in bladder tumor burden to <pT2 disease and no evidence of an increase in the size of nodal disease burden or no evidence of down staging in bladder tumor burden and a decrease in the size of nodal disease burden. Stable disease means persistent MIBC without evidence of metastasis. Progression means M1 disease or significant increase in burden of disease in bladder based upon cystoscopy and Ct/MRI/PET. […]

## Nc1ccn([C@@H]2O[C@H](CO)[C@@H](O)C2(F)F)c(=O)n1 [gemcitabine]
[1]
  tolerability of four consecutive doses (induction): well tolerate
[2]; after the induction therapy
  duration of durable effect after the induction therapy: at least 100 days
[2]; per protocol basis, end of induction period (Day 84)
  objective response rate (ORR): 80%
[2]; per protocol basis, end of induction period (Day 84), ten patients who completed four cycles
  complete response rate: 50%

From patent publication US12636300B2, “Methods of treatment and maintenance therapy for bladder cancer using gemcitabine” (Janssen Biotech, Inc., priority 2017, dated 2026)
